The source of these data is US5783574A, “Imidazolylakyl derivatives of imidazo [5,1-c][1,4]benzoxazin-1-one process for their preparation” (Pharmacia & Upjohn S.p.A., priority 1994, dated 1998).

Structures can show the parent of a compound that is named as a salt.

In assay [1] the target is T1, 5-HT3 binding sites in rat brain cortical membranes (Rattus norvegicus, UniProt P35563).
T1 construct: from tissue; host or cells: rat entorhinal cortex membranes
T1 sequence (P35563 24-483): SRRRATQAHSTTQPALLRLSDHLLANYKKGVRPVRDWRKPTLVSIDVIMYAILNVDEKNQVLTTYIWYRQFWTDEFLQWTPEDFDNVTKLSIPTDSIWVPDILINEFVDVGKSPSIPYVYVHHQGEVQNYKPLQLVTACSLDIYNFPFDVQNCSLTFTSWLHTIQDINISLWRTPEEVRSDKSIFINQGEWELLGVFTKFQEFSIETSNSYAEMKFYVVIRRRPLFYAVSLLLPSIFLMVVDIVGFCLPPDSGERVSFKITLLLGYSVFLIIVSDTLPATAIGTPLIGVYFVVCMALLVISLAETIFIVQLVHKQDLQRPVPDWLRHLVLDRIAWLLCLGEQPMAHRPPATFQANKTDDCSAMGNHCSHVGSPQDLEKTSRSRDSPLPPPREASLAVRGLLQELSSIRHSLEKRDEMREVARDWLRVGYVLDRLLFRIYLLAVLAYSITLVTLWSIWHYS
Briefly: inhibition of 3H-BRL 43694 (Granisetron) binding in rat entorhinal cortex membranes. To be noted: read-out: 5-HT3 binding affinity, 3H-BRL 43694 IC50. An excerpt:
[^3 H]-BRL 43694 (Granisetron) is a specific ligand for 5-HT3 binding sites in rat brain cortical membranes: Biochem. Pharmac. 38, 1693-1695, 1989.
The following Table II summarizes the activity data obtained in this in-vitro test for two representative compounds of the invention in comparison with compound A, i.e. a close chemically related compound falling within U.S. Pat. No. 4,134,974.
5-HT3 binding affinity for rat entorhinal

Assay [2] addresses T2, 5HT3 receptor (Rattus norvegicus, UniProt P35563).
T2 construct: evoked by 5-HT in the anesthetised rat; from tissue; host or cells: whole anaesthetised rat (by own knowledge: cardiopulmonary vagal afferents)
T2 sequence (P35563 24-483): T1 sequence (P35563 24-483)
Briefly: inhibition of the von Bezold-Jarisch reflex (chemoreflex) evoked by 5-HT in the anesthetised rat. Particulars: anesthetized rat, 5-HT 30 μg/kg i.v.; for % inhibition of the von Bezold-Jarisch reflex elicited by 5-HT: compound 100 μg/kg i.v., N=6, mean; for ED50: iv, limits printed on the line below. Format: in vivo. As for the experimental part:
Pharmacol. 326, 36-44 (1984).
Inhibition of the von Bezold-Jarisch reflex
elicited by 5-HT (30 μg/kg i.v.) by FCE
compounds in the anesthetized rat. Values are
mean ± in S.E.M. from N animals

On to `Cc1[nH]cnc1CN1CC2COc3ccccc3N2C1=O` (stereo not shown) [FCE 28158, 2,3,3a,4-tetrahydro-2-(5-methyl-1H-imidazol-4-yl)methyl-1H-imidazo[5,1-c][1,4]benzoxazin-1-one], for which the IC50 in assay [1] came out at 0.076 µM. In assay [2], the “% inhibition of the von Bezold-Jarisch reflex elicited by 5-HT” value is listed as 82% and the 50% effective dose (ED50) amounted to 0.0236 mg/kg.

As for `Cc1nccn1CCN1CC2COc3ccccc3N2C1=O` (stereo not shown) [Compound A, 2,3,3a,4tetrahydro-2-[2(2-methyl-imidazol-1-yl)ethyl1H-imidazo[5,1c][1,4]enzoxazin1-one hydrochloride, reference compound], the 50% inhibitory concentration (IC50) in assay [1] was 1.21 µM.

As to `Cc1[nH]cnc1CN1CC2COc3ccc(Cl)cc3N2C1=O` (stereo not shown) [FCE 28609, 2,3,3a,4-tetrahydro-8-chloro-2-(5-methyl-1H-imidazol-4-yl)methyl-1H-imidazo[5,1-c][1,4]benzoxazin-1-one], the half-maximal inhibitory concentration (IC50) in assay [1] came to 0.006 µM. Moreover, in assay [2], the “% inhibition of the von Bezold-Jarisch reflex elicited by 5-HT” value was 97.5% and it took a dose of 0.00818 mg/kg to reach the 50% effect level (ED50).

Broadly, the IC50 is the concentration at which inhibition is half-maximal. As usually defined, the ED50 is the dose that gives a 50% effect, or the effect in half of the subjects. A lower ED50 goes with greater potency.
